Assay results reported in article PMC6008299, “Impact of race on dose selection of molecular-targeted agents in early-phase oncology trials” (British Journal of Cancer, 2018).

Legend:
Format in all cases: in vivo, human
[1] = Pharmacokinetics in US cohort (U101)
Procedure: (§1) In both studies, the PK profile of DS-7423 was characterised during cycle 1 on days 1 and 8. For PD analysis, glucose, C-peptide, and Akt phosphorylation were measured in platelet-rich plasma collected at predose, 1, 2, 4, 6, and 24 h after dosing on days 1 and 15. Tumour assessment was performed every two cycles using Response Evaluation Criteria in Solid Tumours (RECIST) version 1.1 in both studies. 18F-Fluoro-2-deoxy-D-glucose positron emission tomography ([18F]-FDG) was performed as an exploratory endpoint at baseline and on day 4.[10]
The data cut-off for the primary analysis occurred after all patients had either discontinued the study or completed 6 months of study drug treatment. Descriptive statistics were provided for selected demographic, safety, PK, and PD data by dose and time as appropriate. Descriptive statistics on continuous data included means, medians, standard deviations, and ranges, while categorical data were summarised using frequency counts and percentages. No inferential analysis to compare dose levels was performed due to limited sample sizes. The WinNonlin software was used for PK analysis.

tumour [18F]-FDG uptake = test: [18F]-FDG-PET metabolic response, Japanese (Asian) patients; conditions: day 4
Procedure: as §1

[2] = system: patients with advanced, refractory solid tumours; test: US and Japanese phase I studies combined: safety
Procedure: We conducted two independent, prospective, first-in-human phase I studies of DS-7423, a dual PI3K/mTOR inhibitor, in patients with advanced, refractory solid tumours in the US (U101 study) and Japan (J102 study); age ≥18 years in the US and ≥20 years in Japan; and Eastern Cooperative Oncology Group performance status (ECOG PS) 0–1. Key exclusion criteria included fasting glucose >126 mg/dL (>7 mmol/L); HbA1c >7.0% for the US and HbA1c >6.5% for Japan; history of diabetes mellitus (type I or II); concomitant use of chronic systemic corticosteroids, or prior toxicities from a dual PI3K/mTOR inhibitor (Supplementary Table 1). Studies were approved by the Institutional Review Board at the participating institutions and regulatory authorities. Written informed consent in English and Japanese was obtained from all patients prior to enrollment. The study followed the Declaration of Helsinki and good clinical practice guidelines and was registered with ClinicalTrials.gov (NCT01364844) and with ClinicalTrials.jp (Japic CTI, 12766).
The primary objective was to assess the safety and tolerability to determine the MTD and RP2D of DS-7423 in US and Japanese patients. Secondary and exploratory objectives were to evaluate PK, tumour response, and PD effects. Treatment-emergent adverse events (TEAE) were graded using the Common Terminology Criteria for Adverse Events version 4.0. A dose-limiting toxicity (DLT) was defined as a grade ≥3 clinically significant toxicity, with the exceptions of grade ≥4 anaemia and prolonged grade 3 neutropenia. Both studies were open-label, phase I dose-escalation studies. In Japan, the study was conducted at a single centre, while the US study was conducted at three sites. In Japan, dose escalation of DS-7423 was guided by the modified continuous reassessment method (mCRM) using a Bayesian logistic regression model following the escalation with overdose control (EWOC) principle at a starting dose of 4 mg once daily.[9] In the US, an accelerated titration design was used at low doses followed by a mCRM with EWOC. Briefly, the dose was escalated based on safety data in a single patient until a grade 2 or higher toxicity was observed during cycle 1 or the DLT period (days 1–28). In both studies, DS-7423 was administered orally once daily until patients experienced unacceptable treatment-related toxicity or disease progression. Prophylactic granulocyte colony-stimulating factor and antiemetics were not permitted during cycle 1.

[3] = dose level 4, US cohort (n = 1)
[4] = dose level 8, US cohort (n = 1)
[5] = dose level 16, US cohort (n = 3)
[6] = dose level 160, US cohort (n = 4)
[7] = dose level 240, US cohort (n = 7)

With `CC(=O)N1CCN(c2nc3c(N4CCOCC4)nc(-c4cnc(N)nc4)nc3n2CC(F)(F)F)C[C@H]1C` [DS-7423] the “Mean AUCtau” value [1, 3] was 21.86 ng·h/mL, the “Mean Cmax” value [1, 3] was 4 ng/mL and the T1/2 [1, 3] was 6 to 7 h. For the same molecule, the Tmax [1, 3] was 2 to 4 h, the “Mean AUCtau” value [1, 4] was 131 ng·h/mL and the “Mean Cmax” value [1, 4] was 20 ng/mL. For the same molecule, the T1/2 [1, 4] was 6 to 7 h, the Tmax [1, 4] was 2 to 4 h and the “Mean AUCtau” value [1, 5] was 133.5 ng·h/mL. For the same molecule, the “Mean Cmax” value [1, 5] was 20 ng/mL, the T1/2 [1, 5] was 6 to 7 h and the Tmax [1, 5] was 2 to 4 h. For the same molecule, the “Mean AUCtau” value [1, 6] was 1180.5 ng·h/mL, the “Mean Cmax” value [1, 6] was 59 ng/mL and the T1/2 [1, 6] was 6 to 7 h. The Tmax [1, 6] was 2 to 4 h, the “Mean AUCtau” value [1, 7] was 1458.2 ng·h/mL and the “Mean Cmax” value [1, 7] was 92.0 ng/mL. The T1/2 [1, 7] was 12 h, the Tmax [1, 7] was 2 to 4 h and the “Patients with partial metabolic response ([18F]-FDG-PET)” value (tumour [18F]-FDG uptake) was 36.4%. The “Patients with partial metabolic response ([18F]-FDG-PET)” value (tumour [18F]-FDG uptake; of 11 patients) was 4, the “AST increased (TEAE), incidence” value ([2]; All (n = 69)) was 10.1% and the “AST increased (TEAE), n patients” value ([2]; All (n = 69)) was 7. For the same molecule, the “Abdominal pain (TEAE), incidence” value ([2]; All (n = 69)) was 14.5%, the “Abdominal pain (TEAE), n patients” value ([2]; All (n = 69)) was 10 and the “Back pain (TEAE), incidence” value ([2]; All (n = 69)) was 15.9%. For the same molecule, the “Back pain (TEAE), n patients” value ([2]; All (n = 69)) was 11, the “Blood creatinine increased (TEAE), incidence” value ([2]; All (n = 69)) was 10.1% and the “Blood creatinine increased (TEAE), n patients” value ([2]; All (n = 69)) was 7. For the same molecule, the “Constipation (TEAE), incidence” value ([2]; All (n = 69)) was 18.8%, the “Constipation (TEAE), n patients” value ([2]; All (n = 69)) was 13 and the “Cough (TEAE), incidence” value ([2]; All (n = 69)) was 15.9%. For the same molecule, the “Cough (TEAE), n patients” value ([2]; All (n = 69)) was 11, the “Decreased appetite (TEAE), incidence” value ([2]; All (n = 69)) was 49.3% and the “Decreased appetite (TEAE), n patients” value ([2]; All (n = 69)) was 34. The “Dehydration (TEAE), incidence” value ([2]; All (n = 69)) was 8.7%, the “Dehydration (TEAE), n patients” value ([2]; All (n = 69)) was 6 and the “Diarrhoea (TEAE), incidence” value ([2]; All (n = 69)) was 56.5%. For the same molecule, the “Diarrhoea (TEAE), n patients” value ([2]; All (n = 69)) was 39, the “Dry mouth (TEAE), incidence” value ([2]; All (n = 69)) was 18.8% and the “Dry mouth (TEAE), n patients” value ([2]; All (n = 69)) was 13. The “Dysgeusia (TEAE), incidence” value ([2]; All (n = 69)) was 27.5%, the “Dysgeusia (TEAE), n patients” value ([2]; All (n = 69)) was 19 and the “Edema (TEAE), incidence” value ([2]; All (n = 69)) was 17.4%. For the same molecule, the “Edema (TEAE), n patients” value ([2]; All (n = 69)) was 12, the “Fatigue (TEAE), incidence” value ([2]; All (n = 69)) was 55.1% and the “Fatigue (TEAE), n patients” value ([2]; All (n = 69)) was 38. The “Hyperglycaemia (TEAE), incidence” value ([2]; All (n = 69)) was 17.4%, the “Hyperglycaemia (TEAE), n patients” value ([2]; All (n = 69)) was 12 and the “Lung infection/ pneumonia (TEAE), incidence” value ([2]; All (n = 69)) was 5.8%. For the same molecule, the “Lung infection/ pneumonia (TEAE), n patients” value ([2]; All (n = 69)) was 4, the “Nausea (TEAE), incidence” value ([2]; All (n = 69)) was 56.5% and the “Nausea (TEAE), n patients” value ([2]; All (n = 69)) was 39. The “Pyrexia (TEAE), incidence” value ([2]; All (n = 69)) was 14.5%, the “Pyrexia (TEAE), n patients” value ([2]; All (n = 69)) was 10 and the “Rash (TEAE), incidence” value ([2]; All (n = 69)) was 33.3%. For the same molecule, the “Rash (TEAE), n patients” value ([2]; All (n = 69)) was 23, the “Stomatitis (TEAE), incidence” value ([2]; All (n = 69)) was 33.3% and the “Stomatitis (TEAE), n patients” value ([2]; All (n = 69)) was 23. For the same molecule, the “Vomiting (TEAE), incidence” value ([2]; All (n = 69)) was 37.7%, the “Vomiting (TEAE), n patients” value ([2]; All (n = 69)) was 26 and the RP2D ([2]; US and Japan phase I studies, oral once daily) was 240 mg/day. For the same molecule, the “DS-7423-related ≥grade 3 TEAE” value ([2]; all cohorts) was “rare” and the “Grade of nausea, vomiting, and dysgeusia events” value ([2]; all cohorts) was “grade 1 or 2”.
